# Source: patent US3968233A, “α-Amino-γ-butyrolactones as sedatives” (priority 1975, dated 1976)
# “Also recorded” adds a separate entry of the source.
# Assays:
# [1] = Clinical trial, 2nd group: strain and anxiety; format: in vivo, human; settings: 500 to 1500 mg/day
# Protocol: (§1) Clinical trials were performed on three groups of patients, partly hospitalized patients and partly outpatients. It was determined that the effect observed in the experimental pharmacological studies were useful in the treatment of humans as well.
# The dose levels used with these patients varied between 500 and 1500 mg/day, divided into two or three doses which were given during the day.
# [2] = Clinical studies, overall; format: in vivo, human; settings: humans
# Protocol: as §1
# [3] = Avoidance reflex in conditioned mice; format: in vivo, mouse; settings: control 53.3 ± 4.5 sec
# Description: A conditioning cage was constructed of two chambers with free access between chambers. The floor of one compartment was electrified to make it possible to deliver a mild shock. Mice were conditioned by first giving a warning signal and then after a short period of time the shock was applied. Eventually the mice learned to leave the electrified compartment after the warning bell sounded and they were then judged to be conditioned. The average period of time, in this experiment, for control animals (4) to leave the compartment was 53.3 ± 4.5 sec. Four conditioned mice were administered AP-28 intraperitoneally with 250 mg/kg and their time was 60.6 ± 3.9 sec. Four more conditioned mice treated with 500 mg/kg of AP-28 required 77.5 ± 2.7 sec. to clear the compartment.
# [4] = Excretion rate of intravenously-injected bromosulfonphthalein in bile; format: in vivo; settings: single 500 mg/kg oral dose
# Protocol: (§2) The effect of a single 500 mg/kg oral dose of AP-28 was determined on (a) diuresis in water-loaded rats, (b) choleresis, (c) the excretion rate of intravenously-injected bromosulfonphthalein in bile, (d) arterial blood pressure.
# [5] = Time to death by slow intravenous infusion of strychnine; format: in vivo, mouse; settings: for mean infusion time to cause animals to die: strychnine infusion 0.25 ml/min
# Protocol: (3) continuous intravenous infusion at constant rate (0.4 ml/min) of a strychnine sulfate solution (26.66 mg/l) was carried out by injection through a tail vein into mice until they died. One group of animals received 500 mg/kg of AP-28 as preliminary treatment 15 minutes prior to the beginning of infusion. The mean infusion time to cause six control animals to die was 134 ± 3.2 seconds (mean ± SE). The mean infusion time required to obtain the same effect in animals pretreated with AP-28 was 210 ± 6.1 seconds.
# In another experiment the infusion rate of strychnine was lowered to 0.25 ml/min. Under this condition, the mean infusion time was 246 ± 3.1 seconds in the case of controls (six animals) and 338 ± 24.3 seconds in that of treated animals.
# When the same infusion rate as above was maintained and the amount of AP-28 was reduced to 250 mg/kg, the mean infusion time was 260 ± 13.4 seconds with control animals and 360 ± 21.2 seconds with treated animals.
# [6] = Influence on amphetamine-induced hypermobility; format: in vivo, mouse; settings: d-amphetamine sulfate 5 mg/kg i.p. + AP-28 250 mg/kg i.p. 15 minutes later
# Protocol: Six groups of 4 mice each were treated with 5 mg/kg d-amphetamine sulfate by intraperitoneal administration. Six groups of 4 animals each received the same dose of d-amphetamine sulfate plus 250 mg/kg of AP-28 intraperitoneally 15 minutes after d-amphetamine sulfate; six more groups of four animals each received saline solution and served as control animals. […] The number of times each animal crossed the light beam throughout the 10-minute test was noted.
# [7] = Acute toxicity of AP-28 in the rat; format: in vivo, rat (Wistar-Morini Strain); settings: for Died/treated: in 24 hours; for Remarks: oral
# Protocol: AP-28 was administered to adult rats (Wistar-Morini Strain) of both sexes after fasting overnight. It was administered in an aqueous 1-percent suspension of tragacanth gum orally by gastric probe or intraperitoneally.
# [8] = Clinical trial, 3rd group: essential epilepsy; format: in vivo, human; settings: 0.500 to 1.500 g daily, 10 to 30 days
# Protocol: as §1
# Four patients suffering from essential epilepsy were treated for periods of time varying between 10 and 30 days with daily doses ranging from 0.500 to 1.500 g. […] In the fourth patient it was possible to lower the anti-epileptic massive therapy they had been following for some time, and on which they were maintained throughout this study, by more than 50%.
# [9] = Arterial blood pressure; format: in vivo; settings: single 500 mg/kg oral dose
# Protocol: as §2
# [10] = Protective effect against electroshock (MES); settings: AP-28 250 mg/kg i.p., 10 minutes before electroshock
# [11] = Subacute toxicity, daily oral dosing for 6 consecutive days; format: in vivo, rat; settings: 500 mg/kg daily for 6 consecutive days
# Protocol: Accordingly, 8 rats were given 500 mg/kg daily for 6 consecutive days.
# [12] = Clinical trial, 1st group: insomnia; format: in vivo, human; settings: 400-600 mg one dose at night, 5 to 15 days; seven patients
# Protocol: as §1
# Seven patients complaining of insomnia were treated for a period of time varying from 5 to 15 days. The daily dose was 400-600 mg given as one dose at night.
# [13] = Enhancement of the hypnotic effect of sodium pentobarbital; format: in vivo, mouse
# Protocol: Forty mg/kg of sodium pentobarbital was injected intraperitoneally into mice and note was taken of animals losing the righting reflex and for how long. Other mice received a preliminary treatment with AP-28 at a dosage of 250 and 500 mg/kg, intraperitoneally, and thereafter sodium pentobarbital was given to them.
# [14] = oral (gastric probe), 250 mg/kg
# [15] = oral (gastric probe), 500 mg/kg
# [16] = oral (gastric probe), 1000 mg/kg
# [17] = oral (gastric probe), 1500 mg/kg
# [18] = oral (gastric probe), 2000 mg/kg
# [19] = AP-28 250 + sodium pentobarbital 40 mg/kg i.p.
# [20] = AP-28 500 + sodium pentobarbital 40 mg/kg i.p.
structure (smiles),measurement,setting,value
"CCCCOC(=O)NC1CCOC1=O (stereo not drawn) [AP-28, α-n-butoxycarbonyl-amino-γ-butyrolactone]","somnolence, daily torpor or motive conceptual slowness",[1],"in no case somnolence, daily torpor or motive conceptual slowness were observed; also recorded: without causing daily drowsiness or torpor"
same,disorders or difficulty in usual working activity,[1]; outpatients,No outpatient reported disorders or difficulty in carrying out their usual working activity
same,adverse effects,[2],No adverse effects were observed
same,time to leave the electrified compartment,[3]; 250 mg/kg i.p.,60.6 ± 3.9 s
same,time to leave the electrified compartment,[3]; 500 mg/kg i.p.,77.5 ± 2.7 s
same,excretion rate of bromosulfonphthalein in bile,[4],No treatment caused any significant change
same,mean infusion time to cause animals to die,"[5]; AP-28 250 mg/kg, control 260 ± 13.4",360 ± 21.2 s
same,mean infusion time to cause animals to die (mean ± SE),"[5]; AP-28 500 mg/kg, 15 minutes prior, strychnine infusion 0.4 ml/min, control 134 ± 3.2",210 ± 6.1 s
same,mean infusion time to cause animals to die,"[5]; AP-28 500 mg/kg, control 246 ± 3.1",338 ± 24.3 s
same,Mean number of crossings (± SE) in 10 minutes,[6],836 ± 100
same,loss of the righting reflex,[7]; highest oral dose,did not cause the loss of the righting reflex
same,Remarks: sedated for,"[7]; i.p., 250 mg/kg",about 15 minutes
same,Under hypnosis/treated (loss of the righting reflex),"[7]; i.p., 250 mg/kg",0/4
same,Died/treated,"[7]; i.p., 250 mg/kg",0/4
same,Remarks: sedated for,"[7]; i.p., 500 mg/kg",about 20 minutes
same,Under hypnosis/treated (loss of the righting reflex),"[7]; i.p., 500 mg/kg",0/4
same,Died/treated,"[7]; i.p., 500 mg/kg",0/4
same,loss of the righting reflex,"[7]; i.p., 1 g/kg",the loss of the righting reflex occurred
same,Remarks: under hypnosis for,"[7]; i.p., 1000 mg/kg",about 15 minutes
same,Under hypnosis/treated (loss of the righting reflex),"[7]; i.p., 1000 mg/kg",4/4
same,Died/treated,"[7]; i.p., 1000 mg/kg",0/4
same,Remarks: under hypnosis for,"[7]; i.p., 1500 mg/kg",about 30 minutes
same,Under hypnosis/treated (loss of the righting reflex),"[7]; i.p., 1500 mg/kg",4/4
same,Died/treated,"[7]; i.p., 1500 mg/kg",0/4
same,Remarks: under hypnosis for,"[7]; i.p., 2000 mg/kg",about 60 minutes
same,Under hypnosis/treated (loss of the righting reflex),"[7]; i.p., 2000 mg/kg",4/4
same,Died/treated,"[7]; i.p., 2000 mg/kg",0/4
same,toxicity,"[7]; laboratory animals, summary statement",toxicity is nearly negligible
same,Under hypnosis/treated (loss of the righting reflex),[7]; [14],0/4
same,Died/treated,[7]; [14],0/4
same,Under hypnosis/treated (loss of the righting reflex),[7]; [15],0/4
same,Died/treated,[7]; [15],0/4
same,Under hypnosis/treated (loss of the righting reflex),[7]; [16],0/4
same,Died/treated,[7]; [16],0/4
same,Under hypnosis/treated (loss of the righting reflex),[7]; [17],0/4
same,Died/treated,[7]; [17],0/4
same,Under hypnosis/treated (loss of the righting reflex),[7]; [18],0/4
same,Died/treated,[7]; [18],0/4
same,Remarks,[7]; 250 mg/kg,No particular effect
same,Remarks,[7]; 500 mg/kg,did not cause any particular effect
same,Remarks,[7]; 1000 mg/kg,Slightly sedated; also recorded: a mild sedative effect
same,Remarks,[7]; 1500 mg/kg,Sedated
same,Remarks,"[7]; 2000 mg/kg (highest oral dose), 2000 mg/kg",produced a sedative effect; also recorded: Very sedated
same,duration of sedative and hypnotic effects,[7]; rat,not long lasting and the animal returned to normal
same,LD0,"[7]; rat, oral or intraperitoneal",more than 2 g/kg
same,"lowering of anti-epileptic massive therapy, fourth patient",[8],more than 50%
same,arterial blood pressure,[9],No treatment caused any significant change
same,Number animals died,[10],0/8
same,Number animals with clonic convulsions,[10]; in parentheses number treated,8(8)
same,Number animals with tonic convulsions,[10]; in parentheses number treated,0(8)
same,sedative effect or other abnormal symptoms,[11],No sedative effect or other abnormal symptoms were observed
same,tendency to accumulate in the organism,[11],no tendency for AP-28 to accumulate in the organism
same,effects on awakening (blunting or grogginess),[12],no blunting or grogginess of their minds when they woke up; also recorded: no apparent effects on awakening
same,Animals under hypnosis/treated,[13]; [19],4/4
same,Duration of hypnosis in minutes (m ± SE),[13]; [19],52.5 ± 13 min
same,Animals under hypnosis/treated,[13]; [20],4/4
same,Duration of hypnosis in minutes (m ± SE),[13]; [20],75.2 ± 21.6 min
